Results as given in ChEMBL document CHEMBL5696442, “Discovery of type II inhibitors of TGFβ-activated kinase 1 (TAK1) and mitogen-activated protein kinase kinase kinase kinase 2 (MAP4K2)” (J Med Chem, 2015).
Calls of active or inactive are those of the source. The rule behind the calls is not given here.

Assays:
[1] = molecular target: Cyclin-dependent kinase 2 (Homo sapiens) (UniProt P24941); test: Inhibition of CDK2 Lys2 labeling site harbouring VLHRDLKPQNLLINTEGAIK in human Huh-7 cell lysate at 1 uM by KiNativ Profiling analysis relative to control; format: subcellular
[2] = molecular target: T1, Phosphatidylinositol 5-phosphate 4-kinase type-2 beta (Homo sapiens) (UniProt P78356); test: Inhibition of PIP4K2B ATP labeling site harbouring TVKHGAGAEISTVNPEQYSK in human Huh-7 cell lysate at 1 uM by KiNativ Profiling analysis relative to control; format: subcellular
T1 sequence (whole entry): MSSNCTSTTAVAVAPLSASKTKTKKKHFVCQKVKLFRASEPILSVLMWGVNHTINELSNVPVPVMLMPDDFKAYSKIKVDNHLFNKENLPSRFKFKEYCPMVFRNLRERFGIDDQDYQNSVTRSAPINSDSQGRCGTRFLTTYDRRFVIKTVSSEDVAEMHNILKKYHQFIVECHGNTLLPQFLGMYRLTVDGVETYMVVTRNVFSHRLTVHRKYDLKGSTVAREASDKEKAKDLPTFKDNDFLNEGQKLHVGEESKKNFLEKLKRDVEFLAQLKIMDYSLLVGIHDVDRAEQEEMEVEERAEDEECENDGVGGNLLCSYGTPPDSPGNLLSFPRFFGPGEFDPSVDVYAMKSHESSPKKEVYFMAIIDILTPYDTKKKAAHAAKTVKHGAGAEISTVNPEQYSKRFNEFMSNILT

[3] = molecular target: Serine/threonine-protein kinase WNK1 (Homo sapiens) (UniProt Q9H4A3); test: Inhibition of Wnk1 ACT labeling site in human Huh-7 cell lysate at 1 uM by KiNativ Profiling analysis relative to control; format: subcellular
[4] = molecular target: Tyrosine-protein kinase Blk (Homo sapiens) (UniProt P51451); test: Inhibition of BLK (unknown origin) at 10 uM by Ambit Kinomescan binding assay relative to control
Chain of Tyrosine-protein kinase Blk (Homo sapiens) (P51451 2-505 limits assumed): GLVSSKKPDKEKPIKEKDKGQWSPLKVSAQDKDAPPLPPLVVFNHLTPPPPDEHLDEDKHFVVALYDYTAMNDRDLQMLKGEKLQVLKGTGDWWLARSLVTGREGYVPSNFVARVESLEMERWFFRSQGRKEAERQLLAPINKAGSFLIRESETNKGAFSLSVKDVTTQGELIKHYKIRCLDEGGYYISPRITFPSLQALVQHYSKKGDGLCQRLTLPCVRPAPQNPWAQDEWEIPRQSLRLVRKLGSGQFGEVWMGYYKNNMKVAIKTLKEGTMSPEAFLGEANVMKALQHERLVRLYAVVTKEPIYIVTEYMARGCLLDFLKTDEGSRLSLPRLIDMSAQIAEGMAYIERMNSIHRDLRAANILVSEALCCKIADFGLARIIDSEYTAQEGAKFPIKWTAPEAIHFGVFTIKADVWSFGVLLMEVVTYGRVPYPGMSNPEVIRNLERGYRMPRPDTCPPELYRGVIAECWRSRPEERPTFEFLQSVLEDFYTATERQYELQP

[5] = molecular target: SRSF protein kinase 2 (Homo sapiens) (UniProt P78362); test: Inhibition of SRPK2 (unknown origin) at 10 uM by Ambit Kinomescan binding assay
[6] = molecular target: TRAF2 and NCK-interacting protein kinase (Homo sapiens) (UniProt Q9UKE5); test: Inhibition of ZC2/TNIK Lys2 labeling site in human A-375 cells at 5 uM by KiNativ Profiling analysis relative to control; format: cell-based
[7] = molecular target: Tyrosine-protein kinase CSK (Homo sapiens, UniProt P41240); test: Inhibition of CSK ACT labeling site harbouring VSDFGLTKEASSTQDTGK in human Huh-7 cells at 10 uM by KiNativ Profiling analysis relative to control; format: cell-based
[8] = molecular target: Mitogen-activated protein kinase 14 (Homo sapiens, UniProt Q16539); test: Inhibition of p38alpha K2 labeling site in human Huh-7 cells at 10 uM by KiNativ Profiling analysis relative to control; format: cell-based
[9] = molecular target: T2, Aurora kinase A (Homo sapiens) (UniProt O14965); test: Inhibition of AurA K2 labeling site harbouring DIKPENLLLGSAGELK in human Huh-7 cells at 10 uM by KiNativ Profiling analysis relative to control; format: cell-based
T2 sequence (whole entry): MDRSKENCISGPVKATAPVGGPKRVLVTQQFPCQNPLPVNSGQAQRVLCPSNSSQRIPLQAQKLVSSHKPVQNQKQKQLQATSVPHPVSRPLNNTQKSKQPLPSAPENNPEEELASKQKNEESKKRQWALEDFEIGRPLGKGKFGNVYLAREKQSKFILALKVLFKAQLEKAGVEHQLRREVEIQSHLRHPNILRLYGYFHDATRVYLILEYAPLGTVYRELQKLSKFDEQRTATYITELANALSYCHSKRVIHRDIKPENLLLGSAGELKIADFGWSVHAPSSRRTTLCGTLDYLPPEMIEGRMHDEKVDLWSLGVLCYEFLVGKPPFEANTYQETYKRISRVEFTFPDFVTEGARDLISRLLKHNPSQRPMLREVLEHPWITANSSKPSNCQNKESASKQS

[10] = molecular target: T3, Serine/threonine-protein kinase STK11 (Homo sapiens) (UniProt Q15831); test: Inhibition of LKB1 K2 labeling site in human Huh-7 cells at 10 uM by KiNativ Profiling analysis relative to control; format: cell-based
T3 sequence (whole entry): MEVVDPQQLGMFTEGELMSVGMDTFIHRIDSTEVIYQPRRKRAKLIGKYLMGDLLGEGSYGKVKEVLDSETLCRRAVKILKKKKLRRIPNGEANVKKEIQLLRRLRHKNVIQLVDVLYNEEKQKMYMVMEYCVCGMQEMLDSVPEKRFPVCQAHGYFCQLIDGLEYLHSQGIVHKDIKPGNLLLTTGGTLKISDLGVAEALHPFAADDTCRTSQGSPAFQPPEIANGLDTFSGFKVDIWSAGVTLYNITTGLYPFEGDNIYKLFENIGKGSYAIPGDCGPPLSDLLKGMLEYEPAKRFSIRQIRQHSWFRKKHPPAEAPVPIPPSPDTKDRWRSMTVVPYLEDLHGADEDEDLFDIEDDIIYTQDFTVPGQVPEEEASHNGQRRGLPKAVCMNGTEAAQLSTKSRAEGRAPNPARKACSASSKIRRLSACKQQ

[11] = molecular target: Myosin light chain kinase, smooth muscle (Homo sapiens) (UniProt Q15746); test: Inhibition of smMLCK K1 labeling site in human Huh-7 cells at 10 uM by KiNativ Profiling analysis relative to control; format: cell-based
Chain of Myosin light chain kinase, smooth muscle (Homo sapiens) (Q15746 whole entry): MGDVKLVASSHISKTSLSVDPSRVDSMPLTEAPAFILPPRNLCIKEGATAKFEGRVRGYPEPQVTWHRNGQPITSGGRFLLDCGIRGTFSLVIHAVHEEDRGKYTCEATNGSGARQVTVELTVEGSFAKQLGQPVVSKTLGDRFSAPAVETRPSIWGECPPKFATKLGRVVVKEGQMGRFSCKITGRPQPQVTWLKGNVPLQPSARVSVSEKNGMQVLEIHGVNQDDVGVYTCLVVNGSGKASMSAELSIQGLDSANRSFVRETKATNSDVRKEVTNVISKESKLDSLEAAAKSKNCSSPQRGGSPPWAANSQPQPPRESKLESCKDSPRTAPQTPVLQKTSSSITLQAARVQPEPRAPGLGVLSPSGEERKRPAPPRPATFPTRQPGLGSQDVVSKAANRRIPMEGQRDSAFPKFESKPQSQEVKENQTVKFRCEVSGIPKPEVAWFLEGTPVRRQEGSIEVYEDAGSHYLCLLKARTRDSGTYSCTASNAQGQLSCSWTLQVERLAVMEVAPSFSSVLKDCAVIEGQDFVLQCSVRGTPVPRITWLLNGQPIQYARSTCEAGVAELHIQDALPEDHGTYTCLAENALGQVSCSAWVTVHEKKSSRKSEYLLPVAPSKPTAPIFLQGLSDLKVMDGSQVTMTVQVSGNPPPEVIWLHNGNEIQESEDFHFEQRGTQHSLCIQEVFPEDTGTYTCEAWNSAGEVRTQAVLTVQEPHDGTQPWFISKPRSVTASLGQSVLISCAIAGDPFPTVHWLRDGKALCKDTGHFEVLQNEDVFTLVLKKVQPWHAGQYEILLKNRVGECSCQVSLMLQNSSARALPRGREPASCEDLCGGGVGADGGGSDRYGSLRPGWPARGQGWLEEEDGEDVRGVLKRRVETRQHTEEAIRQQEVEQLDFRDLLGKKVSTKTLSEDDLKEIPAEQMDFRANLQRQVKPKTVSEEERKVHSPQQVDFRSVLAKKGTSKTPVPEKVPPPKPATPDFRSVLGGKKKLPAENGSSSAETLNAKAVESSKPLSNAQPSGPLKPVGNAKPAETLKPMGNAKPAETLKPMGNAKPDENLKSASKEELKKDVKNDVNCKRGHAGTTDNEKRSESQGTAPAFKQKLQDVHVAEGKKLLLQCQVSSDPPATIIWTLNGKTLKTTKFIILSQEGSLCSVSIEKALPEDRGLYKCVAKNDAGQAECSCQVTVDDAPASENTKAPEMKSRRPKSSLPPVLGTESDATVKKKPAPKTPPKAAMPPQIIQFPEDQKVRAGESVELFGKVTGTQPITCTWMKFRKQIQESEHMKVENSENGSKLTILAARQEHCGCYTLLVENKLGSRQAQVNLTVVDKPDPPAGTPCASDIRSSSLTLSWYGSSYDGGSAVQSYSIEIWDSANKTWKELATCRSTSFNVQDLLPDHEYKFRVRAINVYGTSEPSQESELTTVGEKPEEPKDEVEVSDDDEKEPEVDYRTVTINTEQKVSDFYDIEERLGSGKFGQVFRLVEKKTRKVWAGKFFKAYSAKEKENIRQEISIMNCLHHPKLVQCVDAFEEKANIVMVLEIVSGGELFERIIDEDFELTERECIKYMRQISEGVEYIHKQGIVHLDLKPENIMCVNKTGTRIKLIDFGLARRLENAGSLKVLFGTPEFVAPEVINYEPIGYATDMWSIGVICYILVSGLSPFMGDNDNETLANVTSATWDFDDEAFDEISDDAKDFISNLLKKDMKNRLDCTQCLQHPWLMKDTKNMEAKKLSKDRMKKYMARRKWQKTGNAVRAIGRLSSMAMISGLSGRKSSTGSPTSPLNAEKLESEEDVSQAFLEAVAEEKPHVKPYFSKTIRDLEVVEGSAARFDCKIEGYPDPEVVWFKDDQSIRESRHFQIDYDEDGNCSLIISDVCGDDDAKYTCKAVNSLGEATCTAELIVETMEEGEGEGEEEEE

[12] = molecular target: Serine/threonine-protein kinase 38 (Homo sapiens) (UniProt Q15208); test: Inhibition of NDR1 K1 labeling site in human Huh-7 cells at 1 uM by KiNativ Profiling analysis relative to control; format: cell-based
Chain of Serine/threonine-protein kinase 38 (Homo sapiens) (Q15208 2-465 limits assumed): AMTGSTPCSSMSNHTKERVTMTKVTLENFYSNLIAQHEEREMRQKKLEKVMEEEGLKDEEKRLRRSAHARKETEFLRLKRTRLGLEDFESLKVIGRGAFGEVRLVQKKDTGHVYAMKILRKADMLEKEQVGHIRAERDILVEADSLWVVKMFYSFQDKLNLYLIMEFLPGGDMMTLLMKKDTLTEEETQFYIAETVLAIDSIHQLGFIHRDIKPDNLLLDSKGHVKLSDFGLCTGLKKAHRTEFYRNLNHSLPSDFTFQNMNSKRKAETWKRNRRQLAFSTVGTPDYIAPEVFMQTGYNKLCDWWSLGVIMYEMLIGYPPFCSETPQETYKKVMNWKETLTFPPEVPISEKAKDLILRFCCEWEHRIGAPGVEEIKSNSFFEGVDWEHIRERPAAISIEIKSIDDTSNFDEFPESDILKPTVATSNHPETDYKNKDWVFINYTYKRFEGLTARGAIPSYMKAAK

[13] = molecular target: Cyclin-dependent kinase 8 (Homo sapiens) (UniProt P49336); test: Inhibition of CDK8 (unknown origin) at 10 uM by Ambit Kinomescan binding assay relative to control; values are per cent of control
Chain of Cyclin-dependent kinase 8 (Homo sapiens) (P49336 whole entry): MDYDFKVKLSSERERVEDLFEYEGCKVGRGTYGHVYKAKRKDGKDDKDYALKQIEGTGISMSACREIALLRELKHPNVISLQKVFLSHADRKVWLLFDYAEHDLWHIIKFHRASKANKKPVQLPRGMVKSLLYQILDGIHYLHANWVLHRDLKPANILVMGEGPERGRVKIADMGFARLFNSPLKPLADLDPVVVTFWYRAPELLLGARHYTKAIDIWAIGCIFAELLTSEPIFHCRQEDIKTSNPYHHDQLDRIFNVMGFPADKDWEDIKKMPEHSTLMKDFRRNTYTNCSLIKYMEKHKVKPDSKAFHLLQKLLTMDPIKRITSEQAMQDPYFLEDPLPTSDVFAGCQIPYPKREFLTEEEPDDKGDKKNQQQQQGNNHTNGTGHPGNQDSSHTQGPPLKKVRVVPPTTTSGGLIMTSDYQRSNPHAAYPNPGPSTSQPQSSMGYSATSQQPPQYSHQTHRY

[14] = molecular target: Protein-tyrosine kinase 2-beta (Homo sapiens) (UniProt Q14289); test: Inhibition of PYK2 (unknown origin) at 1 uM by Ambit Kinomescan binding assay relative to control
Chain of Protein-tyrosine kinase 2-beta (Homo sapiens) (Q14289 whole entry, looked up): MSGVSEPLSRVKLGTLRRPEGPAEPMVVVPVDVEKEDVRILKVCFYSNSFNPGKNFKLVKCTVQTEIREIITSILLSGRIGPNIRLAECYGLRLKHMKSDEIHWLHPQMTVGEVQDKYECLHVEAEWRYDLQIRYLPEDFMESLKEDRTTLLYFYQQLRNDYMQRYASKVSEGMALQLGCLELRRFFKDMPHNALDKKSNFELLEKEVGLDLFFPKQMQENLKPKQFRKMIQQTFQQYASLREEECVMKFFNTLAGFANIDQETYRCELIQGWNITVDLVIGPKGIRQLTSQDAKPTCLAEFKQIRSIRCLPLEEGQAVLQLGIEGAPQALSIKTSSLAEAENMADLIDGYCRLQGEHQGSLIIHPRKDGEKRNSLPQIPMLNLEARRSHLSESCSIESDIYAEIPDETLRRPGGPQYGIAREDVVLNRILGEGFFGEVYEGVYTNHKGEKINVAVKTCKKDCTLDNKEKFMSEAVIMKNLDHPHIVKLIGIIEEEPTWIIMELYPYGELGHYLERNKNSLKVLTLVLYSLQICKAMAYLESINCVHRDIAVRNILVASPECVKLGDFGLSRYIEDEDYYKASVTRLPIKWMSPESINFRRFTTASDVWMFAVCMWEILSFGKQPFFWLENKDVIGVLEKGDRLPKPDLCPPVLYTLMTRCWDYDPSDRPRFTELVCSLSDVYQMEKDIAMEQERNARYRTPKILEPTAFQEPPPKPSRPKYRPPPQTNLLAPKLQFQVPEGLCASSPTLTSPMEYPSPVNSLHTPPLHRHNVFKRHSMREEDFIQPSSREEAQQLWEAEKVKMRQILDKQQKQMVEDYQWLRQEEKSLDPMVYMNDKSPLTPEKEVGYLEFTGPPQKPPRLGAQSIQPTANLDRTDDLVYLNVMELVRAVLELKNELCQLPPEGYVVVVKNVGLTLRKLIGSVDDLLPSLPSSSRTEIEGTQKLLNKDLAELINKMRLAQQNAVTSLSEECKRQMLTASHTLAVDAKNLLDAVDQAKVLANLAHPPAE

[15] = molecular target: Proto-oncogene tyrosine-protein kinase Src (Homo sapiens, UniProt P12931); test: Inhibition of SRC (unknown origin) at 1 uM by Ambit Kinomescan binding assay relative to control
[16] = molecular target: Serine/threonine-protein kinase 38-like (Homo sapiens) (UniProt Q9Y2H1); test: Inhibition of NDR2 Lys2 labeling site in human A-375 cells at 5 uM by KiNativ Profiling analysis relative to control; format: cell-based
[17] = molecular target: Serine/threonine-protein kinase mTOR (Homo sapiens) (UniProt P42345); test: Inhibition of FRAP ATP labeling site in human A-375 cells at 0.05 uM by KiNativ Profiling analysis relative to control; format: cell-based
[18] = molecular target: Serine/threonine-protein kinase 4 (Homo sapiens) (UniProt Q13043); test: Inhibition of MST1 Lys2 labeling site harbouring DIKAGNILLNTEGHAK in human A-375 cells at 5 uM by KiNativ Profiling analysis relative to control
Chain of Serine/threonine-protein kinase 4 (Homo sapiens) (Q13043 whole entry, looked up): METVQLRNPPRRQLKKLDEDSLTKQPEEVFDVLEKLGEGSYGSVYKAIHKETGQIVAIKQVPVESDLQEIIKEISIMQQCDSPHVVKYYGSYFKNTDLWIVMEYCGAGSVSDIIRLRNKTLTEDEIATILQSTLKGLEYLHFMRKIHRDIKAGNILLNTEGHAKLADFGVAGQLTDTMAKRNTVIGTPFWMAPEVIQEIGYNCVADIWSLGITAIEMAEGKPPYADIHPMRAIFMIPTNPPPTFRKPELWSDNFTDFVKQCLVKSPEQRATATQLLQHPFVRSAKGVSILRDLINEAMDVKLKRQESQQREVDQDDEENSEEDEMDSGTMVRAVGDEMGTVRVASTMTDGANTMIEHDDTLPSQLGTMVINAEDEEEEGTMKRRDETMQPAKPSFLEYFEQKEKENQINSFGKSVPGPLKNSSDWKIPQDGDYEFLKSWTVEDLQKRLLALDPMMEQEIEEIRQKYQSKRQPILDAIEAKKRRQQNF

CNc1cc(Oc2cc(C(=O)Nc3cc(N4CCN(C)CC4)cc(C(F)(F)F)c3)ccc2C)ncn1
inhibition [1]: 16.1%
inhibition [2]: -5.4%
inhibition [3]: -6.9%

CCN1CCN(Cc2ccc(NC(=O)c3ccc(C)c(Oc4ccnc5[nH]ccc45)c3)cc2C(F)(F)F)CC1
inhibition [4]: 0.45%
inhibition [5]: inactive
inhibition [6]: 92.7%
inhibition [7]: 10.8%
inhibition [8]: 6.8%
inhibition [9]: 9.4%
inhibition [10]: 11.6%
inhibition [11]: -9%
inhibition [12]: 4.4%
percent of control [13]: 3.9%

CCN1CCN(Cc2ccc(NC(=O)c3ccc(C)c(/C=C/c4cnc5[nH]ccc5c4OC)c3)cc2C(F)(F)F)CC1
inhibition [14]: 19%
inhibition [15]: 2.8%
inhibition [16]: 20.9%
inhibition [17]: -7.6%
inhibition [18]: 14.1%
